Values quoted from earlier work in patent US20030124112A1, “Use of a lacrophyl preparation in eye drops containing therpeutically active compounds” (priority 2000, published 2003).

Experiments:
tear lysozyme = details: dropped in the eye, glaucome
[1] = 0.0001% benzalkonium-chloride, in vitro

CC(C)(C)NCC(O)COc1cccc2c1CCC(=O)N2 (stereo not drawn) [cartelol]
effect on amount of tear lysozyme (tear lysozyme): decrease of the amount of tear lysozyme

CC(C)(C)NC[C@H](O)COc1nsnc1N1CCOCC1 [timolol]
effect on amount of tear lysozyme (tear lysozyme): decrease of the amount of tear lysozyme

benzalkonium-chloride
effect on cells [1]: causes cell death
